Results taken from PubChem BioAssay AID2060499 (Molecular Pharmacology Branch, DTP, NCI, 2025).

Test system: 777334-354-R2-J4-PDC tumor spheroids with HUVEC/MSC, viability
Experiment: Anticancer human tumor 777334-354-R2-J4-PDC patient-derived pancreatic adenocarcinoma cell line growth inhibition [GQUAD]
Details: for IC50: curve of first compound; for viability, T/C: stronger effect = lower value
Description: DNA G-quadruplex Stabilizer Agents in Combinations in Complex Spheroids
A high-throughput screen of multi-cell type tumor spheroids was designed to identify active combinations of DNA G-quadruplex stabilizer agents and targeted small molecules. Complex spheroids include a stromal component modeled by human endothelial cells (HUVEC) and fibroblasts modeled by human mesenchymal stem cells (MSCs). The concentration ranges selected for each drug and investigational agent were based upon clinically achievable concentrations if the clinical Cmax of the agent was known.
Compounds. The drugs and investigational agents: pidnarulex (CX-5461; NSC782164), APTO-253 (NSC789042), BRACO-19 (NSC847499), peposertib (NSC802822), ceralasertib (NSC780249), elimusertib (NSC800525), camonsertib (NSC841442), AZD-1390 (NSC803789), olaparib (NSC753686), talazoparib (NSC767125), ART-558 (NSC835418), sotorasib (NSC818433), MRTX-1133 (NSC836407), SN-38 (NSC673596), topotecan (NSC609699), etoposide (NSC141540), doxorubicin (NSC123127), gemcitabine (NSC613327), 5-fluorouracil (NSC19893), paclitaxel (NSC125973), vemurafenib (NSC761431), panobinostat (NSC761190), R-306465 (JNJ-16241199; NSC773264), adavosertib (NSC754352), TP-3654 (NSC805149), carboplatin (NSC241240), KSQ-4279 (NSC840948), and staurosporine (NSC755774) were obtained from the National Cancer Institute (NCI) Developmental Therapeutics Program Chemical Repository (34). The FDA-approved anticancer drug set is available from the NCI Developmental Therapeutics Program. […] The stock solutions were prepared in dimethyl sulfoxide (DMSO, Sigma-Aldrich, St. Louis, MO, cat. D2650) at 800-fold the tested concentration and stored at -70 degrees C prior to their use. All drugs and investigational agents were tested over a range starting from a high concentration at or near the clinical Cmax and decreasing in half-log increments. If the clinical Cmax for an agent had not been determined, the highest concentration tested was 10 microM.
2.3 Cell Culture. All cells were maintained in an incubator at 37 degrees C and 5% CO2 with 95% humidity. The PDC lines were cultured according to standard operating procedures established by the NCI PDMR. All PDCs were thawed and cultured in Matrigel-coated flasks prepared with a working solution of 1X Ham's F-12 nutrient mix, without supplementation (Invitrogen, cat. 11765054), 100 U/mL penicillin-streptomycin (Invitrogen, cat. 15140122), and 2.5% Matrigel (Corning Inc., cat. 354248) for the first three passages. The 857933-349-R-J2-PDC line was cultured in 6C/Colon 1B media, which includes advanced DMEM/F-12 (Thermo Fisher Scientific, cat. 12634028), 10 mM HEPES (Thermo Fisher Scientific, cat. 15630080), 1X GlutaMAX supplement (Thermo Fisher Scientific, cat. 35050061), 0.1 mg/mL primocin (InvivoGen, cat. ant-pm-2), 10% defined fetal bovine serum, heat inactivated (HyClone Laboratories Inc., cat. SH30070.03HI), 50% L-WRN conditioned media (ATCC, cat. CRL-3276), 1.25 mM N-Acetyl-L-cysteine (Sigma-Aldrich, cat. A9165), 10 mM nicotinamide (Sigma-Aldrich, cat. N0636), 1X B-27 supplement (Thermo Fisher Scientific, cat. 17504044), 1X N-2 supplement (Thermo Fisher Scientific, cat. 17502048), 10 microM Y-27632 dihydrochloride (Tocris Bioscience, cat. 1254), and 50 ng/mL human EGF recombinant protein (Thermo Fisher Scientific, cat. PHG0311). The 485176-168-R4-J1-PDC line was cultured in Panc media, which includes all 6C/Colon 1B media components plus 100 ng/mL human FGF-10 (Thermo Fisher Scientific, cat. 100-26), 500 nM SB-431542 (Selleckchem, cat. S1067), and gastrin (Tocris, cat. 3006).
[…]

[1] = second compound 0.0316 µM, first compound 0.0316 µM
[2] = second compound 0.0316 µM, first compound 0.1 µM
[3] = second compound 0.0316 µM, first compound 0.316 µM
[4] = second compound 0.0316 µM, first compound 1 µM
[5] = second compound 0.0316 µM, first compound 3.16 µM
[6] = second compound 0.0316 µM, first compound 10 µM
[7] = second compound 0.1 µM, first compound 0.0316 µM
[8] = second compound 0.1 µM, first compound 0.1 µM
[9] = second compound 0.1 µM, first compound 0.316 µM
[10] = second compound 0.1 µM, first compound 1 µM
[11] = second compound 0.1 µM, first compound 3.16 µM
[12] = second compound 0.1 µM, first compound 10 µM
[13] = second compound 0.316 µM, first compound 0.0316 µM
[14] = second compound 0.316 µM, first compound 0.1 µM
[15] = second compound 0.316 µM, first compound 0.316 µM
[16] = second compound 0.316 µM, first compound 1 µM
[17] = second compound 0.316 µM, first compound 3.16 µM
[18] = second compound 0.316 µM, first compound 10 µM
[19] = second compound 1 µM, first compound 0.0316 µM
[20] = second compound 1 µM, first compound 0.1 µM
[21] = second compound 1 µM, first compound 0.316 µM
[22] = second compound 1 µM, first compound 1 µM
[23] = second compound 1 µM, first compound 3.16 µM
[24] = second compound 1 µM, first compound 10 µM
[25] = second compound 3.16 µM, first compound 0.0316 µM
[26] = second compound 3.16 µM, first compound 0.1 µM
[27] = second compound 3.16 µM, first compound 0.316 µM
[28] = second compound 3.16 µM, first compound 1 µM
[29] = second compound 3.16 µM, first compound 3.16 µM
[30] = second compound 3.16 µM, first compound 10 µM
[31] = second compound 10 µM, first compound 0.0316 µM
[32] = second compound 10 µM, first compound 0.1 µM
[33] = second compound 10 µM, first compound 0.316 µM
[34] = second compound 10 µM, first compound 1 µM
[35] = second compound 10 µM, first compound 3.16 µM
[36] = second compound 10 µM, first compound 10 µM
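Note: spheroids exposed to compounds for 7 days before readout.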

C=CCn1c(=O)c2cnc(Nc3ccc(N4CCN(C)CC4)cc3)nc2n1-c1cccc(C(C)(C)O)n1 + Cc1[nH]c2ccc(F)cc2c1-c1nc2c3cccnc3c3ncccc3c2[nH]1
IC50 (second compound 0.0316 µM): 725 nM
IC50 (second compound 0.1 µM): 869 nM
IC50 (second compound 0.316 µM): 738 nM
IC50 (second compound 1 µM): 710 nM
IC50 (second compound 3.16 µM): 31.6 nM
IC50 (second compound 10 µM): < 31.6 nM
viability, T/C [1]: 100%
viability, T/C [2]: 106%
viability, T/C [3]: 79.5%
viability, T/C [4]: 39.5%
viability, T/C [5]: 30.6%
viability, T/C [6]: 34.6%
viability, T/C [7]: 87.5%
viability, T/C [8]: 92.9%
viability, T/C [9]: 78%
viability, T/C [10]: 46.6%
viability, T/C [11]: 33.1%
viability, T/C [12]: 34.5%
viability, T/C [13]: 94.3%
viability, T/C [14]: 99.8%
viability, T/C [15]: 82.8%
viability, T/C [16]: 38.3%
viability, T/C [17]: 36.7%
viability, T/C [18]: 30.9%
viability, T/C [19]: 75.3%
viability, T/C [20]: 77.5%
viability, T/C [21]: 73.1%
viability, T/C [22]: 40.1%
viability, T/C [23]: 34%
viability, T/C [24]: 28.1%
viability, T/C [25]: 50.4%
viability, T/C [26]: 36.9%
viability, T/C [27]: 50.8%
viability, T/C [28]: 12.8%
viability, T/C [29]: 14%
viability, T/C [30]: 14.2%
viability, T/C [31]: 31.7%
viability, T/C [32]: 27.5%
viability, T/C [33]: 24.7%
viability, T/C [34]: 14.8%
viability, T/C [35]: 14.1%
viability, T/C [36]: 11.2%

CCCS(=O)(=O)Nc1ccc(F)c(C(=O)c2c[nH]c3ncc(-c4ccc(Cl)cc4)cc23)c1F + Cc1[nH]c2ccc(F)cc2c1-c1nc2c3cccnc3c3ncccc3c2[nH]1
IC50 (second compound 0.0316 µM): 7750 nM
IC50 (second compound 0.1 µM): 8350 nM
IC50 (second compound 0.316 µM): 7780 nM
IC50 (second compound 1 µM): 7020 nM
IC50 (second compound 3.16 µM): < 31.6 nM
IC50 (second compound 10 µM): < 31.6 nM
viability, T/C [1]: 108%
viability, T/C [2]: 108%
viability, T/C [3]: 114%
viability, T/C [4]: 111%
viability, T/C [5]: 124%
viability, T/C [6]: 32%
viability, T/C [7]: 111%
viability, T/C [8]: 104%
viability, T/C [9]: 109%
viability, T/C [10]: 122%
viability, T/C [11]: 130%
viability, T/C [12]: 38%
viability, T/C [13]: 94.7%
viability, T/C [14]: 102%
viability, T/C [15]: 96.2%
viability, T/C [16]: 126%
viability, T/C [17]: 117%
viability, T/C [18]: 33.9%
viability, T/C [19]: 79.8%
viability, T/C [20]: 99.4%
viability, T/C [21]: 92.4%
viability, T/C [22]: 109%
viability, T/C [23]: 111%
viability, T/C [24]: 28.5%
viability, T/C [25]: 50.2%
viability, T/C [26]: 46.1%
viability, T/C [27]: 33.2%
viability, T/C [28]: 30.6%
viability, T/C [29]: 38.5%
viability, T/C [30]: 13.8%
viability, T/C [31]: 44.3%
viability, T/C [32]: 31.9%
viability, T/C [33]: 43.8%
viability, T/C [34]: 28.8%
viability, T/C [35]: 28.4%
viability, T/C [36]: 15.8%
